From US7148194B2, “Method to increase fibronectin” (Kimberly-Clark Worldwide, Inc., priority 2002, dated 2006) come the findings set out here.

Where “and” joins values, the source holds several entries; their conditions need not be identical. Equal entries are not always repeated.

In assay [1] the test system is normal human dermal fibroblasts (NHDF). The experiment in a line: NHDF migration assay, 48-well chemotaxis chamber. The class given is cell-based. As to the method: Normal, human dermal fibroblasts (NHDF) were obtained from Biowhittaker, (Walkersville, Md.) and propagated in T75 flasks in FBM media (500 mL, Biowhittaker) containing insulin, hFGF-b, GA-1000, and fetal bovine serum (10 mL) for up to 12 passages. For the migration assay, NHDF were washed once with 10 mL of Hank's buffered saline solution (HBSS). Three milliliters of trypsin (0.25%) in EDTA were added to the T75 flask for no more than five minutes to remove NHDF from the flask. NHDF in trypsin solution were added to 7 mL of FBM with no supplements added. NHDF were centrifuged for 5 minutes, and the supernatant was removed. NHDF were resuspended in 10 mL of FBM for counting. NHDF were centrifuged for another 5 minutes, and the supernatant was removed. NHDF were resuspended at 1×10^6 cells per mL in FBM without supplements. It was important to use FBM media only in migration assays because the complete media contains fibroblast growth factor and serum, both of which will trigger migration of fibroblasts.
Peptides were synthesized and purified by the Microchemical Facility at Emory University or by SigmaGenesis. All peptides were analyzed by mass spectrometry after HPLC to assess purity. Approximately 0.5–2.0 milligrams of peptide were used to make fresh stock solutions (5 mg/mL in PBS) for each migration assay. The peptide stock solutions in PBS were used to make more dilute solutions (1 mg/mL, 100 μg/mL, 10 μg/mL, 1 μg/mL, 100 ng/mL, 10 ng/mL) in FBM (without supplements) for the migration assays.
Polyvinylpyrrolidone-free polycarbonate membranes with […] pores (Neuroprobe, Inc., Gaithersburg, Md.) were washed with 90% ethanol for 15 minutes and rinsed four times with deionized water. Membranes were then placed into a glass dish containing an aqueous solution of 5 μg/mL gelatin. The glass dish was placed in to a water bath at about 90° C. for one hour. Membranes were removed from the gelatin solution and were allowed to dry for one hour in the 37° C. incubator.
A 48-well chemotaxis chamber (Neuroprobe, Inc., Gaithersburg, Md.) (see FIG. 20) was used for the migration assays. Twenty-eight μL of each test solution were added to the bottom wells of the chamber in quadruplicate. A gelatin-treated membrane was placed carefully on top of the bottom wells. The gasket and top part of chamber were then placed carefully on top of the membrane. The apparatus was tightened using six thumbscrews. A solution of NHDF containing an estimated cell density (2×10^5 cells per mL) was made by adding 320 μL of the 1×10^6 cells per mL solution to 1.28 mL of FBM (no supplements). Fifty microliters of the 2×10^5 cells per mL NHDF solution were added to the top part of each well in the chamber. The chamber was placed in the incubator at 37° C./5% CO2 for three hours. The chamber was removed, the thumbscrews were removed, and the chamber was turned upside down on a paper towel. […] The membrane was carefully removed. […] The membrane was fixed with methanol and stained using the Diff-Quik Staining Solutions I and II. The nuclei of NHDF are stained purple. The membrane was mounted on a glass slide using cedarwood immersion oil and a cover slip. […] The average number of migrated NHDF in the negative control was subtracted from the experimental (peptide) data and positive control data.

For assay [2], the system named is fibronectin in human skin fibroblast cell line. The experiment in a line: fibronectin in human skin fibroblasts, EIA. The format is cell-based. The following applies: for Mean (fibronectin EIA, absorbance at 450 nm) / Median (fibronectin EIA, absorbance at 450 nm): 48 hours, n=2. As to the method: The fibroblast cells were first grown in a 96-well assay system using DMEM with 10% fetal bovine serum (FBS), both purchased from Sigma Chemical Co, St. Louis, Mo. […] Serum-free DMEM was used as a control. Cells were seeded into a 96 well plate at a concentration of 9×10^3 cells in 100 μl of DMEM containing 10% fetal bovine serum (FBS, Sigma Chemical Co., St. Louis, Mo.). The plate was incubated for 48 hours at 37° C. in a humidified 5% CO2 atmosphere. After incubation, the medium was aspirated and the wells were rinsed twice with 100 μl of serum-free DMEM. […] In addition, 100 μl of vehicle (serum-free DMEM) was added to 2 wells as a control. The plate was incubated for 48 hours at 37° C. in a humidified, 5% CO2 atmosphere.
The assay was performed using the recommended 100 μl of supernatant from each well of the 96-well plate. Standard buffer and stop solutions were freshly prepared before running the assay. A pre-antibody coated 96 well plate (provided with the kit) was used to transfer the test samples and the control. The plate was mixed, sealed, and incubated for 1 hour at 37° C. All the wells were washed three times (300ul) with washing buffer after removing sample solutions. 100ul of antibody-peroxidase conjugate solution was added into the wells. The plate was mixed, sealed, and incubated for one hour at 37° C. Solutions were removed and the wells were washed 3 times with washing buffer. All the wells were completely emptied at the end of washing from any liquid. 100 μl of substrate solution (hydrogen peroxide and tetramethylbenzidine in a buffered solution) was added to each well, and the plate was incubated at room temperature for 15 minutes. 100 μl of stop solution (freshly prepared 1N H2SO4) was added to each well in the same order as substrate. The plate was gently mixed and absorbance was read at 450 nm. Statistical analyses of data were performed using a one-way ANOVA.

A further assay deals with T1, MMP-9 (Homo sapiens, UniProt P14780).
T1 construct: Active MMP-9 enzyme was purchased from Calbiochem; purchased Calbiochem
T1 sequence (P14780 107-707 limits assumed): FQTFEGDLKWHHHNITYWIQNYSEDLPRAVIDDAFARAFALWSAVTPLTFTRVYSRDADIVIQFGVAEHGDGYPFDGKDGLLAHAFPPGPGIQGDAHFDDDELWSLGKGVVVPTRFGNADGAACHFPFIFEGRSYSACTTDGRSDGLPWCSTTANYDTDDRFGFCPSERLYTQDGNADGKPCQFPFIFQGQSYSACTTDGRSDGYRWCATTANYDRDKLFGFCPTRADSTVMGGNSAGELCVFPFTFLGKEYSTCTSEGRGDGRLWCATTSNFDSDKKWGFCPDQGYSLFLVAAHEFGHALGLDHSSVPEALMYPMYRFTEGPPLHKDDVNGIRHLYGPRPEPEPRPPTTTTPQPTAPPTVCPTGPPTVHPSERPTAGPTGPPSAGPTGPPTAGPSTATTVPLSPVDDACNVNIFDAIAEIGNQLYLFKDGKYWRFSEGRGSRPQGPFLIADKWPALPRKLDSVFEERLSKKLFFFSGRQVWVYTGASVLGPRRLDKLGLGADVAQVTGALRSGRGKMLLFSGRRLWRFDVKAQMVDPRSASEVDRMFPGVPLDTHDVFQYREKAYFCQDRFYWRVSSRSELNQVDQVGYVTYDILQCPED
The experiment in a line: enzymatic hydrolysis of fluoresceinated collagen by MMP-9. The class given is biochemical. The following applies: extended time assay, FIG. 8. As to the method: Two enzymatic assays were performed. The first assay measured the enzymatic hydrolysis of fluoresceinated collagen by MMP-9 as a function of time. […] The protein mixture was added to the collagen substrate, and was quickly mixed. Fluorescence emission intensity at 520 nm was measured as a function of time (excitation wavelength 495 nm) in a Shimadzu RF5301 fluorometer (Lakowicz, 1983). The fluorescein release assay was used to determine the inhibitory constant (Ki) of the peptide inhibitor ([I]) according to Segel (1993) via the use of Dixon plots (1/v vs. [I]), such that: slope=Km/(Vmax Ki [S]) (1) where Km is the Michaelis constant, Vmax is the reaction maximum velocity, and [S] is the substrate concentration.

Turning to `CC(C)[C@H](NC(=O)[C@H](CC(=O)O)NC(=O)[C@@H]1CCCN1C(=O)[C@H](CC(N)=O)NC(=O)CNC(=O)[C@H](CS)NC(=O)[C@H](CCCNC(=N)N)NC(=O)[C@@H]1CCCN1)C(=O)N[C@@H](C)C(=O)N[C@@H](CC(N)=O)C(=O)N[C@@H](Cc1ccc(O)cc1)C(=O)N[C@@H](CC(N)=O)C(=O)N[C@@H](Cc1ccccc1)C(=O)N[C@@H](Cc1ccccc1)C(=O)N1CCC[C@H]1C(=O)N[C@@H](CCCNC(=N)N)C(=O)N[C@@H](CCCCN)C(=O)N1CCC[C@H]1C(=O)N[C@@H](CCCCN)C(=O)O` [Peptide 19-mer], the “NHDF migration, percent of the plasma fibronectin positive control” value in assay [1] (100 μg/mL peptide) was 46±3% and 46%±3%; in assay [1] (1000 μg/mL peptide), 55±3% and 55%±3%; in assay [1] (concentrations below 100 μg/mL), “about 20%”. Further, the “Mean (fibronectin EIA, absorbance at 450 nm)” value in assay [2] (1×10^−4 M) is listed as 0.4045; in assay [2] (1×10^−5 M), 0.2400; in assay [2] (1×10^−6 M), 0.1895. In addition, the “Median (fibronectin EIA, absorbance at 450 nm)” value in assay [2] (1×10^−4 M) was 0.4045; in assay [2] (1×10^−5 M) it was 0.2400; in assay [2] (1×10^−6 M) it was 0.1895. The “effect on fibronectin stimulation compared with control and 10^−6 M” value in assay [2] (10^−4 M) is reported as “more than doubled”. Further, the “amount of fibronectin versus control” value in assay [2] (all concentrations tested (1×10^−4, 1×10^−5, 1×10^−6 M)) is “increased the amount of fibronectin present”. Further, the “time over which MMP-9 catalyzed hydrolysis of collagen is effectively inhibited” value at MMP-9 is over 1000 min.
